In patent publication US20250275968A1, “INHIBITORS OF TAU PROTEINS” (DEUTSCHES ZENTRUM FÜR NEURODEGENERATIVE ERKRANKUNGEN E.V., priority 2022, published 2025):
Where a name gives a salt, the structure may show the parent alone.

How the values were obtained:
[1] = test system: tau-induced degeneration of Drosophila eyes (GMR-Gal4/WT tau); assay: Drosophila neurodegeneration model (eye degeneration); type: in vivo; conditions: GMR-Gal4/WT tau flies treated in food from larvae stage to adult stage
Description: Stock solutions of individual compounds were prepared by dissolving 10 mg of the compound in 100 μl of 100% DMSO. Osimertinib, Osimertinib mesylate and AZ7550 mesylate were orally fed to the flies by mixing them with food. The final concentration of each compound, which was used for treating the Drosophila, was derived on the basis of recommended concentrations for human use (reference concentration) based on body weight.
We have used three concentrations for each compound. One was equal to the reference concentration, and two were higher than the reference concentration. Final concentrations of different compounds mixed with fly food are: Osimertinib mesylate, […]; Osimertinib, […]; AZ 7550 mesylate, 10 µM and 20 µM. After hatching, first instar larvae were transferred onto the food containing one of the compounds. Food mixed with drug at required concentration was replaced with fresh food every 48 h.
Light microscopy was performed after mounting the fly heads on the glass slide using a double-sided adhesive tape. Full-eye images were captured with the help of an Infinity Analyze camera attached to an Olympus SZX7 microscope with a halogen light source. Total eye surface area and degenerated eye surface area were marked and calculated with Infinity Analyze software (Lumenera corporation). Percentage of degenerated area was calculated and plotted using GraphPad Prism 8.
After the eclosion, treated and control flies (2-3 days old) were fixed in 1% formaldehyde for two hours, followed by serial dehydration steps of 12 hrs each in 25%, 50%, 75% and 100% ethanol were carried out. Flies were stored in 100% ethanol and dried with CPD before mounting on the stab for imaging. Eye Images were captured at 150× and analyzed using Infinity Analyze software.

2N4R tau aggregates = molecular target: T1, 2N4R tau aggregates (Homo sapiens, UniProt P10636); assay: Dissolution of preformed 2N4R tau fibrils (ThT fluorescence, TEM); type: biochemical; conditions: compounds added to tau fibrils after about 40 h; tau monomer:Compound 1:3 and 1:10
T1 construct: Full-length 2N4R tau was incubated with Osimertinib mesylate
T1 sequence (P10636 1-441 isoform P10636-8): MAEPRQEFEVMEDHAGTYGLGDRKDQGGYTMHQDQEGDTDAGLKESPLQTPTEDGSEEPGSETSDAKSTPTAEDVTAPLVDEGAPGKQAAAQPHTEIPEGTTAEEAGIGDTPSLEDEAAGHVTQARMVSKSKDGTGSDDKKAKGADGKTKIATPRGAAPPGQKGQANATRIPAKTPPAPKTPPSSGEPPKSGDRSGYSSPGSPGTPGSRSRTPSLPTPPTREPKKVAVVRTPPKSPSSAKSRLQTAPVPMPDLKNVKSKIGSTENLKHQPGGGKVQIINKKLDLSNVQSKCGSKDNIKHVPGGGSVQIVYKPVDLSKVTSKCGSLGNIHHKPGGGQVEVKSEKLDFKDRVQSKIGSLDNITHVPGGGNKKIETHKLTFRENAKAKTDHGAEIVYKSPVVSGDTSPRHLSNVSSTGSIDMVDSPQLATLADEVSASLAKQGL
Description: (A) ThT fluorescence curves monitoring tau aggregation. tau fibrillization reached a saturation point within about 40 h, then compounds or buffer (Reference) were added to tau fibrils (tau monomer:Compound mole ratios 1:3 and 1:10). The experiment was performed in duplicate. […] Statistically significant differences were determined by one-way ANOVA with Dunnett's multiple comparison test. Significant differences corresponding to p≤0.0002(***) and p≤0.0001(****) are indicated. […] Scale bars are 500 nm. […] The dotted line corresponds to one standard deviation above the Reference value.
(§1) To prepare the Tau fibril seeds by de novo aggregation, 2N4R Tau at a monomer concentration of 25 μM was diluted in aggregation buffer. The working concentration of TCEP in the aggregation mixture was <25 μM after dilution of the stock. To this mixture, Thioflavin T (ThT) was added to a final concentration of 50 μM. A total volume of 100 μL of the Tau-ThT mixture was incubated in a well of a 96-well microplate (Greiner Bio-one), in the presence of two polytetrafluoroethylene beads. The microplate was subjected to a program implemented in a Tecan Spark plate reader that involved incubating at 37° C., with intervals of double orbital shaking and ThT fluorescence emission measurement. The excitation wavelength for ThT was set as 430 nm and the emission wavelength was 485 nm. Details of this plate reader program were published previously (Reference: Chakraborty, P. et al. Co-factor-free aggregation of tau into seeding-competent RNA-sequestering amyloid fibrils. Nat. Commun. 12, 4231 (2021)). […] The fibril-containing mixture collected from the microplate served as a seeding mixture for the subsequent aggregation assays.
Fibril samples were negative stained using glow discharged 400 mesh carbon-coated copper grids. After staining using a 1% uranyl acetate solution, images were acquired on a Talos L120C transmission electron microscope (Thermo Fisher, Eindhoven, The Netherlands).

15N-labeled 2N4R tau = molecular target: T2, 15N-labeled 2N4R tau (Homo sapiens, UniProt P10636); assay: SOFAST-HMQC NMR binding to monomeric tau; conditions: 18 μM tau, 50 mM sodium phosphate pH 6.8, 16 h at 37° C., spectra at 5° C.
T2 construct: Full-length 2N4R tau was incubated with Osimertinib mesylate
T2 sequence (P10636 1-441 isoform P10636-8): as above
Text: (A) Overlaid spectra of 2N4R tau with (black) and without (grey) a 100-fold molar excess of Osimertinib mesylate.
To obtain residue-specific information about the interaction between Tau and the compounds, ^1H-^15N correlation spectra of 2N4R Tau were monitored over the course of a titration with increasing amounts of compound. The ^1H-^15N SOFAST-HMQC (Reference: Schanda, P., Kupce, E. & Brutscher, B. SOFAST-HMQC experiments for recording two-dimensional heteronuclear correlation spectra of proteins within a few seconds. J. Biomol. NMR 33, 199-211 (2005)) spectra of [U-^15N]-Tau were acquired at 5° C. on a Bruker 800 MHz spectrometer equipped with a triple-resonance cryoprobe. Tau samples (18-25 μM) were prepared in NMR buffer containing 10% (v/v) D2O, and with compound concentrations that corresponded to Tau:compound mole ratios of 1:10 and 1:100. All NMR samples were incubated overnight (˜16 h) at 37° C. prior to spectral acquisition. Tau amide assignments were taken from a previous study (Reference: Mukrasch, M. et al. Structural polymorphism of 441-residue tau at single residue resolution. PLoS Biol. 7, e34 (2009)). However, because previous assignments were obtained using a Tau sample prepared in the presence of reducing agents, some amide resonances belonging to the repeat region of Tau (close to C291 and C322) were not unambiguously transferred to the SOFAST-HMQC spectra acquired under oxidizing conditions. Therefore, to obtain nearly complete backbone assignments in the repeat region, 3D HNCA, 3D HNCOCA, and 3D CBCACONH spectra were recorded for a [U-^13C,^15N]-4R Tau (K18 construct) sample prepared under the same buffer condition. The weighted, normalized chemical shift perturbations (CSP) were calculated as CSP=√[0.5 [(Δδ H)^2+(Δδ N)^2/25]. NMR signal intensity ratios, I/I0 (where I is the peak intensity of Tau amide backbone resonances in the presence of the compounds, and I0 is the peak intensity in the absence of the compounds), were calculated for each titration point.

2N4R Tau fibrils = molecular target: T3, 2N4R Tau fibrils (Homo sapiens, UniProt P10636); assay: Saturation transfer difference (STD) NMR with tau fibrils; type: binding; conditions: 48-fold excess of compound, 100 mM NaCl, 2.5% (v/v) DMSO, pH 6.8, 37° C.
T3 construct: Full-length 2N4R tau was incubated with Osimertinib mesylate
T3 sequence (P10636 1-441 isoform P10636-8): as above
Description: 2N4R Tau fibrils were prepared using the aggregation procedure described in the section in vitro assay 1 without Thioflavin T. The mole ratio of “free” compound to fibrils was 48:1 (corresponding to a total compound concentration of 250 μM and a total fibril concentration of 5 μM Tau). The NMR samples were prepared in 50 mM sodium phosphate with 100 mM NaCl and 2.5% (v/v) DMSO at pH 6.8. The spectra were recorded at 37° C. using a Bruker 700 MHz spectrometer equipped with a triple resonance cryoprobe. 1D ^1H-NMR STD spectra were acquired in an interleaved manner, alternating between off-resonance irradiation at 60 ppm and on-resonance irradiation at −2 ppm.

[2] = test system: HEK293T biosensor cells expressing the human tau repeat domain (RD) harboring the P301L/V337M mutation (TauRD^LM-GFP); assay: HEK biosensor cell tau seeding assay; type: cell-based; conditions: for compound concentration up to which total amount of cells remained close to 100% (low toxicity): HEK biosensor cells, relative to vehicle (DMSO)
Description: Compound stock solutions were prepared as 10 mM compound in DMSO.
HEK293T biosensor cells expressing the human tau repeat domain (RD) harboring the P301L/V337M mutation and fused to a C-terminal GFP tag (named TauRD^LM-GFP) were engineered to probe Tau seeding in cellula (Reference: Liu, S., Hossinger, A., Heumüller, S E. et al. Highly efficient intercellular spreading of protein misfolding mediated by viral ligand-receptor interactions. Nat Commun 12, 5739 (2021). https://doi.org/10.1038/s41467-021-25855-2). HEK cells expressing the P301L human full-length Tau, C-terminally tagged with GFP were incubated with pre-sonicated hTau40^P301L fibrils to induce Tau aggregate formation. Cells were harvested and the resulting cell lysate was used to seed Tau aggregation in further experiments with HEK TauRD^LM-GFP cells.
In a typical seeded assay, HEK cells were incubated with cell lysate, compounds (0-40 μM) and lipofectamine for 22-48 hours. Negative control experiments in the absence of compounds (only with vehicle DMSO) and in the presence of cell lysate were performed in parallel.
Dose response curves were constructed by quantifying the number of cells with aggregates for each compound concentration. The curves were fitted with a sigmoid function using Graphpad PRISM version 8. The inhibitory concentration at 50% activity (IC50) was determined for each compound.

2N4R tau = molecular target: T4, 2N4R tau (Homo sapiens, UniProt P10636); assay: In vitro seeded aggregation/fibrillization assay of 2N4R tau (ThT fluorescence); type: biochemical
T4 construct: Full-length 2N4R tau was incubated with Osimertinib mesylate
T4 sequence (P10636 1-441 isoform P10636-8): as above
Description: Aggregation of 2N4R Tau was performed using a previously published co-factor-free aggregation protocol, with a few modifications (Reference: Chakraborty, P. et al. Co-factor-free aggregation of tau into seeding-competent RNA-sequestering amyloid fibrils. Nat. Commun. 12, 4231 (2021)). Aggregation experiments used the Tau protein stock prepared in 25 mM HEPES pH 7.4, 1 mM TCEP. Stocks of compounds were prepared in aggregation buffer (25 mM HEPES, 10 mM KCl, 5 mM MgCl2, pH 7.2) or in DMSO (10 mM compound).
as §1
Seeded aggregation assays were performed as described above but with 1.0% of the well volume occupied by the seeding mixture sonicated for 1 minute. The assays were performed in the presence and absence of compounds, and working concentrations ranged from 0-250 μM compound.
Analyses of the fluorescence curves were performed using Graphpad PRISM version 8. Fluorescence data were fit to a sigmoid function. The number of hours corresponding to half-maximal ThT Fluorescence™ as well as the span of fluorescence intensity (Span) were determined for each sigmoid curve. Statistically significant differences were determined by one-way ANOVA analysis with Dunnett's multiple comparison test or unpaired t-test.

tau(244-372, 13818 Da) = molecular target: T5, tau(244-372, 13818 Da) (Homo sapiens, UniProt P10636); assay: ESI-MS covalent modification of tau; type: binding
T5 construct: comprising residues 244-372 of 2N4R Tau
T5 sequence (P10636 561-689): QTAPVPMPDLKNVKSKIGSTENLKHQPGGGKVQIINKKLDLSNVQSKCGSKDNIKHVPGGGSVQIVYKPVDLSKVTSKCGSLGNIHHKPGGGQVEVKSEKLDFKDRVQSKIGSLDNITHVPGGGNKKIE
Description: This analysis was performed using the 4R Tau construct (K18 construct, 13818 Da) comprising residues 244-372 of 2N4R Tau. Compounds (330 μM) were incubated with 4R Tau (65 μM) for 16 h at 37° C. in 10 mM ammonium bicarbonate at pH 7.0. The compound/4R Tau mixtures were injected into an LC system (ACQUITY) coupled to a single quadrupole mass detection system (SQ Detector 2, Waters) with diode-array detectors (DAD). The DAD spectrum covers wavelengths of 210-400 nm. Components of the compound-4R Tau mixture were separated using a BioResolve RP mAb column (Waters) with a gradient of 5-95% buffer B (buffer A is 0.1% TFA in water and buffer B is 0.1% TFA in acetonitrile). Covalent modification of 4R Tau corresponded to mass additions of 500 Da (Osimertinib) and 486 Da (AZ7550 or AZ5104).

C=CC(=O)Nc1cc(Nc2nccc(-c3cn(C)c4ccccc34)n2)c(OC)cc1N(C)CCNC [AZ7550 mesylate, N-[4-methoxy-5-[[4-(1-methyl-1H-indol-3-yl)-2-pyrimidinyl]amino]-2-[methyl[2-(methylamino)ethyl]amino]phenyl]-2-Propenamide]
tau-induced degeneration of Drosophila eyes (percent degeneration, light microscopy) [1]: rescue tau-induced degeneration of Drosophila eyes

C=CC(=O)Nc1cc(Nc2nccc(-c3cn(C)c4ccccc34)n2)c(OC)cc1N(C)CCNC [AZ7550 hydrochloride, N-[4-methoxy-5-[4-(1-methyl-1H-indol-3-yl)-2-pyrimidinyl]amino]-2-[methyl[2-(methylamino)ethyl]amino]phenyl]-2-Propenamide hydrochloride]
dissolution of 2N4R tau aggregates (reduction of ThT fluorescence intensity) (2N4R tau aggregates): partially dissolve
binding to tau (NMR spectroscopy) (15N-labeled 2N4R tau): reveals binding
STD effect with tau fibrils (fibril binding epitopes) (2N4R Tau fibrils): Protons showing STD effects
compound concentration up to which total amount of cells remained close to 100% (low toxicity) [2]: about 5.0 μM

C=CC(=O)Nc1cc(Nc2cc(-c3cn(C)c4ccccc34)nc(OC)n2)c(OC)cc1N(C)CCN(C)C [Compound 9]
compound concentration up to which total amount of cells remained close to 100% (low toxicity) [2]: about 4.0 μM

C=CC(=O)Nc1cc(Nc2nccc(-c3cn(C)c4ccccc34)n2)c(OC)cc1N(C)CCNC [Compound 2]
In vitro seeded aggregation/fibrillization of full-length tau (ThT fluorescence curves) (2N4R tau; 2N4R tau, various formulations): inhibited in a dose-dependent manner
covalent modification of cysteines in tau (ESI-MS) (tau(244-372, 13818 Da)): confirms covalent modification of cysteines

O=C(O[C@@H]1Cc2c(O)cc(O)cc2O[C@@H]1c1cc(O)c(O)c(O)c1)c1cc(O)c(O)c(O)c1 [EGCG]
inhibitory activity toward the aggregation of tau in HEK biosensor cells (number of cells with aggregates relative to DMSO) ([2]; control compounds compared with Osimertinib, compound 2 and compound 3): much lower inhibitory activity

C=CC(=O)Nc1cc(COc2cc(-c3cn(C)c4ccccc34)ccn2)ccc1N1CCCC1 [Compound 31]
efficacy of aggregation delay compared to Compound 1 (2N4R tau; 1:3 Tau:compound mole ratio, 2.5% (v/v) DMSO): notably more efficacious
normalized Tm, extent of aggregation delay (2N4R tau; 1:3 Tau:compound mole ratio, 2.5% (v/v) DMSO, at least 3 replicates): significant delay of aggregation
